Tests used:
[1] = In vivo biodegradability assay (lipid in liver); conditions: mouse liver, 48 h
Method: In vivo biodegradability assay was performed to assess the biodegradability of lipids in the LNP. Briefly, mice were injected with either 0.1 or 0.03 mg/Kg dose and after 24 or 48 hours mice livers were collected. To measure the concentration of lipids in the mouse liver, liver samples were homogenized in appropriate buffer in 1-10 dilution and mixed with the same amount of stabilized plasma. The samples were then mixed with organic solvents spiked with internal standard to precipitate proteins. After centrifugation, supernatant was diluted further with organic solvent before sample analysis by LC-MS. In LC-MS analysis, positive electrospray ionization was used, and multiple reaction monitoring (MRM) parameters were set up to specifically target the lipid analyte and internal standard. Calibration standards were prepared in stabilized plasma and mixed with same amount of homogenization buffer before protein precipitation. Quality control samples with known amounts of lipid was prepared in blank liver homogenate to monitor the precision and accuracy of the assay.

[2] = test system: factor VII; assay: Factor VII knock down evaluation (LNP with FVII siRNA); type: in vivo, Balb/C mice; conditions: plasma FVII after 48 h vs saline control; for FVII KD % 0.01 mpk: 0.01 mpk i.v.; for FVII KD % 0.03 mpk: 0.03 mpk i.v.
Method: Lipid formulations comprising a FVII siRNA further described below were evaluated for their knockdown activity using the protocol of this example. In the FVII evaluation, seven to eight week-old, female Balb/C mice were purchased from Charles River Laboratories (Hollister, CA). The mice were held in a pathogen-free environment and all procedures involving the mice were performed in accordance with guidelines established by the Institutional Animal Care and Use Committee (IACUC). Lipid nanoparticles containing factor VII siRNA were administered intravenously at a dosing volume of 10 mL/kg and two dose levels (0.03 and 0.01 mg/kg). After 48 h, the mice were anesthetized with isoflurane and blood was collected retro-orbitally into Microtainer® tubes coated with 0.109 M sodium citrate buffer (BD Biosciences, San Diego, CA) and processed to plasma. Plasma specimens were tested for factor VII levels immediately or stored at −80° C. for later analysis. Measurement of FVII protein in plasma was determined using the colorimetric Biophen VII assay kit (Aniara Diagnostica, USA). Absorbance was measured at 405 nm and a calibration curve was generated using the serially diluted control plasma to determine levels of factor VII in plasma from treated animals, relative to the saline-treated control animals.

[3] = test system: hEPO; assay: hEPO mRNA expression evaluation (hEPO-LNPs); type: in vivo, Balb/c mice; conditions: serum hEPO after 6 hr; for EPO exprssn (ng/mL) 0.1 mpk: 0.1 mpk i.v.; for EPO exprssn (ng/mL) 0.03 mpk: 0.03 mpk i.v.
Method: Protocol for hEPO mRNA Expression Evaluation
Lipid formulations comprising a hEPO mRNA below were evaluated for their ability to express hEPO in vivo according to the protocol of this example. All animal experiments were conducted using institutionally-approved protocols (IACUC). In this protocol, female Balb/c mice at least 6-8 weeks of age were purchased from Charles River Laboratory. […] After 6 hr, blood was collected with serum separation tubes, and the serum was isolated by centrifugation. Serum hEPO levels were then measured using an ELISA assay (Human Erythropoietin Quantikine IVD ELISA Kit, R&D Systems, Minneapolis, MD).

[4] = Mouse plasma stability; type: in vitro ADME, CD-1 mouse; conditions: 1 uM lipid
Method: Lipid stock solution was prepared by dissolution of the lipid in isopropanol at the concentration of 5 mg/mL. A requisite volume of the lipid-isopropanol solution was then diluted to 100 μM concentration at a total volume of 1.0 mL with in 50:50 (v/v) ethanol/water. Ten microliters of this 100 μM solution was spiked into 1.0 mL of mouse plasma (BioIVT, Cat. No.: MSE00PLNHUNN, CD-1 mouse, anticoagulant: sodium heparin, not filtered) that was pre-warmed to 37° C. and was stirred at 50 rpm with a magnetic stir bar. The starting concentration of lipids in plasma was thus 1 μM. At time points 0, 15, 30, 45, 60 and 120 min, 0.1 mL of the plasma was withdrawn from the reaction mixture and the protein was precipitated by adding 0.9 mL of ice-cold 4:1 (v/v) acetonitrile/methanol with 1 μg/mL of a selected internal standard lipid added. After filtration through a 0.45 micron 96-well filtering plate, the filtrates were analyzed by LC-MS (Thermo Fisher's Vanquish UHPLC—LTQ XL linear ion trap Mass Spectrometer); Waters XBridge BEH Shield RP18 2.5 micron (2.1×100 mm) column with its matching guard column. Mobile phase A was 0.1% formic acid in water, and mobile phase B was 0.1% formic acid in 1:1 (v/v) acetonitrile/methanol. Flow rate was 0.5 ml/min. Elution gradient was: Time 0-1 min: 10% B; 1-6 min: 10%-95% B; 6-8.5 min: 95% B; 8.5-9 min: 95%-10% B; 9-10 min: 10% B. Mass spectrometry was in positive scanning mode from 600-1100 m/z. The peak of the molecular ion of the lipids was integrated in the extracted ion chromatography (XIC) using Xcalibur software (Thermo Fisher). The relative peak area compared to T=0, after normalization by the peak area of the internal standard, was used as the percentage of the lipid remaining at each time point. T1/2 values were calculated using the first-order decay model.

[5] = Measured pKa in the indicated formulation; conditions: for pKa: EPO / pKa: FVII: Table 2; for pKa: EPO: measured in EPO formulation; for pKa: FVII: measured in FVII formulation
Method: Measured pKa values were determined based on the pH measured in the indicated formulation (i.e., EPO or FVII formulation).

Row | In vivo degradability (ng/tissue) at 48h 0.03 mpk ([1]; Table 1) | In vivo degradability (ng/tissue) at 48h 0.1 mpk ([1]; Table 1) | In vivo degradability (ng/tissue) at 48h 0.03 mpk ([1]; Table 2) | In vivo degradability (ng/tissue) at 48h 0.1 mpk ([1]; Table 2) | Percent remaining in mouse plasma after 2 h ([4]; Table 1, mouse plasma 37 C) | Percent remaining in mouse plasma after 2 h ([4]; Table 2, mouse plasma 37 C) | pKa ([5]; EPO formulation) | pKa ([5]; FVII formulation) | pKa: EPO [5] | pKa: FVII [5] | SMILES | FVII KD % 0.01 mpk ([2]; Table 2) | FVII KD % 0.03 mpk ([2]; Table 2) | EPO exprssn (ng/mL) 0.1 mpk ([3]; Table 2) | FVII KD % 0.01 mpk ([2]; Table 1) | FVII KD % 0.03 mpk ([2]; Table 1) | EPO exprssn (ng/mL) 0.03 mpk ([3]; Table 1) | EPO exprssn (ng/mL) 0.1 mpk ([3]; Table 1) | EPO exprssn (ng/mL) 0.03 mpk ([3]; Table 2)
1 | <340 ng/tissue | <340 ng/tissue | <340 ng/tissue | <340 ng/tissue | 256% | 100% | 6.57 | 6.45 | 6.57 | 6.45 | CC1CCC(CC(=O)OCC(COC(=O)CC2CCC(C)CC2)OC(=O)CCCN(CCCC(=O)OC(COC(=O)CC2CCC(C)CC2)COC(=O)CC2CCC(C)CC2)C(=O)SCCCN(C)C)CC1 (stereo not shown) [LIPID 15, ((4,4′-((((3-(Dimethylamino)propyl)thio)carbonyl)azanediyl)bis(butanoyl))bis(oxy))bis(propane-2,1,3-triyl)tetrakis(2-(4-methylcyclohexyl)acetate)] | 66.8% | 89.7% | 1899 ng/mL |  |  |  |  | 
2 | BLOQ | BLOQ | BLOQ | BLOQ | 40% | 40% | 6.6 | 6.68 | 6.6 | 6.68 | CN(C)CCCSC(=O)N(CCCC(=O)OC(COC(=O)CCCC1CCCCC1)COC(=O)CCCC1CCCCC1)CCCC(=O)OC(COC(=O)CCCC1CCCCC1)COC(=O)CCCC1CCCCC1 [LIPID 11, ((4,4′-((((3-(Dimethylamino)propyl)thio)carbonyl)azanediyl)bis(butanoyl))bis(oxy))bis(propane-2,1,3-triyl)tetrakis(4-cyclohexylbutanoate)] | 84% | 22% | 548 ng/mL | 84% | 22% | 169 ng/mL | 548 ng/mL | 169 ng/mL
3 | <340 ng/tissue | <340 ng/tissue | <340 ng/tissue | <340 ng/tissue | 116% | 100% | 7.19 | 6.86 | 7.19 | 6.86 | CCCCCCCCC(=O)OCC(COC(=O)CCCCCCCC)COC(=O)CCN(CCC(=O)OCC(COC(=O)CCCCCCCC)COC(=O)CCCCCCCC)C(=O)SCCCN(C)C [LIPID 14] | 65% | 90% | 1152 ng/mL | 65% | 90% |  |  | 
4 | BLOQ | BLOQ | BLOQ | BLOQ | 81% | 81% | 6.5 |  | (6.50/ND) |  | CCCCCCCCC(=O)OCC(COC(=O)CCCCCCCC)OC(=O)CN(CC(=O)OC(COC(=O)CCCCCCCC)COC(=O)CCCCCCCC)C(=O)SCCCN(C)C [LIPID 8, ((2,2′-((((3-(Dimethylamino)propyl)thio)carbonyl)azanediyl)bis(acetyl))bis(oxy))bis(propane-2,1,3-triyl)tetranonanoate] |  |  | 701 ng/mL |  |  | 169 ng/mL | 701 ng/mL | 169 ng/mL
